In patent US5236946A, “Amino acid esters of cycloaliphatic alcohols and their use in treating lipemic disorders” (Panmedica S.A., priority 1986, dated 1993):
Structures can show the parent of a compound that is named as a salt.

Experiments:
[1] = system: rats rendered hyperlipemic with olive oil; assay: Hypolipemic activity in rats rendered hyperlipemic with olive oil; format: in vivo; conditions: rat, atherogenic diet enriched with olive oil
Description: EXAMPLE XVI-HYPOLIPEMIC ACTIVITY IN RATS RENDERED HYPERLIPEMIC WITH OLIVE OIL
A group of rats is placed on an atherogenic hyperlipemic diet enriched with olive oil and the animals are then treated per os. The cholesterol and triglycerides are then determined as in the previous example. […]

[2] = biological target: T1, 3-hydroxy-3-methylglutaryl coenzyme A reductase (Rattus norvegicus, UniProt P51639); assay: Inhibitory activity towards 3-hydroxy-3-methylglutaryl coenzyme A reductase (method of Shefer et al.); format: biochemical
T1 sequence (P51639 1-887): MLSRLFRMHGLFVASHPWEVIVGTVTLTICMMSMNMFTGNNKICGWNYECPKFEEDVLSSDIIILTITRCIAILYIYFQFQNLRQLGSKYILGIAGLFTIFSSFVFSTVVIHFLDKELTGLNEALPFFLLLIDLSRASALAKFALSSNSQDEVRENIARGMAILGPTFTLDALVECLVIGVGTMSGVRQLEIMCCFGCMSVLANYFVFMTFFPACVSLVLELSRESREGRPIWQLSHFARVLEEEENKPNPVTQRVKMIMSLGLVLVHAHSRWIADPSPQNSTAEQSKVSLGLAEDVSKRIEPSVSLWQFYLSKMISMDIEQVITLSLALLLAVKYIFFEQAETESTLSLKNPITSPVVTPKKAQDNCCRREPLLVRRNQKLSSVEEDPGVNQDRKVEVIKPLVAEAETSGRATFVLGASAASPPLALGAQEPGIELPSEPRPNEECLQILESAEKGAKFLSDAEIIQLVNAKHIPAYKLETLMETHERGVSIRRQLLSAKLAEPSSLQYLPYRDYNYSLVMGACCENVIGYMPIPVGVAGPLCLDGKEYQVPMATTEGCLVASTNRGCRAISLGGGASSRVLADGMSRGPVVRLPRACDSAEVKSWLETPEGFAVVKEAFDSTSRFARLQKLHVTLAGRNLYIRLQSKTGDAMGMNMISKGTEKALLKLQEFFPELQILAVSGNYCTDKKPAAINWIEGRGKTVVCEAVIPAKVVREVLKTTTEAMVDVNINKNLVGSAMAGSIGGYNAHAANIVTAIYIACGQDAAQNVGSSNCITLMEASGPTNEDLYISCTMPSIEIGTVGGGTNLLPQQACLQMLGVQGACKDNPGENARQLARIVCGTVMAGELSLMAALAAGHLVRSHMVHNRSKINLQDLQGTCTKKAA
From the text: EXAMPLE XVII-DETERMINATION OF THE INHIBITORY ACTIVITY OF THE COMPOUNDS TOWARDS 3-HYDROXY-3-METHYLGLUTARYL COENZYME A REDUCTASE
The method used is the one described by Shefer et al. (J. Lipid Res. 1972, 13, 402); cf. also Stokker (J. Med. Chem. 1985, 28, 357).

[3] = system: experimental hyperlipemia induced by Triton (rats); assay: Activity on the experimental hyperlipemia induced by Triton; format: in vivo; conditions: rat, Triton 300 mg/kg i.p., 18 hours
Description: EXAMPLE XV-ACTIVITY ON THE EXPERIMENTAL HYPERLIPEMIA INDUCED BY TRITON
Groups of 10 fasted rats weighing about 200 g are treated with an intraperitoneal injection of Triton at a dose of 300 mg/kg; immediately afterwards, the products are administered orally.
After 18 hours, the cholesterol and triglycerides are determined.

[4] = system: cholesterol synthesis; conditions: cited from earlier work
[5] = per os 100 mg/kg, listed as Ex. I
[6] = oral 150 mg/kg, listed as Ex. I
[7] = per os 100 mg/kg, listed as Ex. IV
[8] = oral 150 mg/kg, listed as Ex. IV
[9] = per os 100 mg/kg, listed as Ex. III
[10] = oral 150 mg/kg, listed as Ex. III

IC50 [2] [nM] | Structure (SMILES) | Cholesterol level ([3]; oral 150 mg/kg) [g/L] | Triglyceride level ([3]; oral 150 mg/kg) [g/L] | further results
100 | CC1CC(OC(=O)[C@@H]2CCC(=O)N2)CC(C)(C)C1 (single isomer, unassigned) [Example I, 3,3,5-Trimethylcyclohexyl L-pyroglutamate] | – | – | Cholesterol level ([1]; per os 25 mg/kg): 1.73 g/L; Triglyceride level ([1]; per os 25 mg/kg): 1.39 g/L; Cholesterol level [1, 5]: 1.50 g/L; Triglyceride level [1, 5]: 0.80 g/L; Cholesterol level ([3]; oral 50 mg/kg): 2.80 g/L; Triglyceride level ([3]; oral 50 mg/kg): 1.46 g/L; Cholesterol level [3, 6]: 1.95 g/L; Triglyceride level [3, 6]: 0.93 g/L
150 | CC1CC(OC(=O)[C@@H]2CCC(=O)N2)CC(C)(C)C1 (single isomer, unassigned) [Example IV, 3,3,5-TRIMETHYLCYCLOHEXYL PYROGLUTAMATE] | – | – | Cholesterol level [1, 7]: 1.47 g/L; Triglyceride level [1, 7]: 0.80 g/L; Cholesterol level [3, 8]: 2.15 g/L; Triglyceride level [3, 8]: 0.85 g/L
– | CN(C)CCCN(C)[C@H]1CC[C@H]2[C@@H]3CC=C4C[C@@H](O)CC[C@]4(C)[C@H]3CC[C@]12C [20, 25-Diazacholesterol] | – | – | inhibits cholesterol synthesis [4]: inhibits cholesterol synthesis
– | CC1CC(OC(=O)[C@@H]2CCC(=O)N2)CC(C)(C)C1 (some centres unmarked) [Example III, 3,3,5-trimethylcyclohexyl pyroglutamate] | – | – | Cholesterol level [1, 9]: 1.47 g/L; Triglyceride level [1, 9]: 1.01 g/L; Cholesterol level [3, 10]: 2.00 g/L; Triglyceride level [3, 10]: 1.10 g/L
400 | CC1CC(C)CC(OC(=O)[C@@H]2CCC(=O)N2)C1 (stereo partly drawn) [Example IX, L-Pyroglutamate of 3,5-dimethylcyclohexanol] | 2.10 | 1.30 | –
80 | CC1CC(OC(=O)[C@@H](N)CCC(N)=O)CC(C)(C)C1 (stereo partly drawn) [Example V, trans-3,3,5-trimethylcyclohexyl L-γ-amidoglutamate hydrochloride] | 1.95 | 1.15 | Cholesterol level ([1]; per os 100 mg/kg): 1.62 g/L; Triglyceride level ([1]; per os 100 mg/kg): 0.92 g/L
120 | CC1CC(OC(=O)[C@@H](N)CCC(=O)O)CC(C)(C)C1 (stereo partly drawn) [Example VI, TRANS-3,3,5-TRIMETHYLCYCLOHEXYL L-α-GLUTAMATE HYDROCHLORIDE] | 2.50 | 2.00 | –
500 | CC(=O)N[C@@H](CC(=O)O)C(=O)OC1CC(C)CC(C)(C)C1 (stereo partly drawn) [Example VII, MAGNESIUM SALT OF 3,3,5-TRIMETHYLCYCLOHEXYL N-ACETYL-L-α-ASPARTATE] | 3.00 | 2.70 | –
550 | O=C1CC[C@@H](C(=O)OC2CCCCC2)N1 [Example VIII, L-Pyroglutamate of cyclohexanol] | – | – | –
400 | CC1CCCC(C)C1OC(=O)[C@@H]1CCC(=O)N1 (stereo partly drawn) [Example X, L-Pyroglutamate of 2,6-dimethylcyclohexanol] | – | – | –
130 | CC1=CC(OC(=O)[C@@H]2CCC(=O)N2)CC(C)(C)C1 (stereo partly drawn) [Example XI, L-Pyroglutamate of 3,5,5-trimethylcyclohex-2-en-1-ol] | 2.00 | 1.92 | –
600 | CC1(OC(=O)[C@@H]2CCC(=O)N2)CCCC1 [Example XII, L-Pyroglutamate of 1-methylcyclopentanol] | – | – | –
210 | CC1=CCC(OC(=O)[C@@H]2CCC(=O)N2)(C(C)C)CC1 (stereo partly drawn) [Example XIII, L-Pyroglutamate of terpin-4-enol] | 1.90 | 1.20 | –
300 | CC1=CCC(C(C)(C)OC(=O)[C@@H]2CCC(=O)N2)CC1 (stereo partly drawn) [Example XIV, L-Pyroglutamate of terpineol] | 2.12 | 1.10 | –
– | O=C(O)c1cccnc1 [nicotinic acid, reference compound] | – | – | Cholesterol level ([3]; oral 500 mg/kg): 5.00 g/L; Triglyceride level ([3]; oral 500 mg/kg): 1.41 g/L
